Data set [1] deals with A549 (human lung cancer) cell line. The data set can be described thus: Cell proliferation assay (MTT), A549. The format is cell-based. Particulars: 48 h exposure, n = 3 (mean ± SD), read-out: Proliferative inhibition IC50, A549. How it is done:
(§1) The anti-proliferative activities of the prepared compounds (12a-12s) were evaluated against A549, MCF-7 and MKN-45 cell lines by MTT assay in vitro. Briefly, tumour cells were cultured to log phase in RPMI 1640 medium supplemented with 10% foetal bovine serum (FBS). After diluting to 2 × 10^4 cells mL^−1 with the complete medium, 100 µL of the obtained cell suspension was added to each well of 96-well culture plates. Subsequently, incubation was performed at 37 °C in 5% CO2 for 24 h before the anti-proliferative assessment. Tested samples at pre-set concentrations were added to 6 wells with cabozantinib as a positive reference. After 48 h exposure period, 40 µL of PBS containing 2.5 mg mL^−1 of MTT was added to each well. Four hours later, 100 µL extraction solution (10% SDS-5% isobutyl alcohol-0.010M HCl) was added. After an overnight incubation at 37°C, the absorbance was measured at a wavelength of 570 nm with an ELISA microplate reader. All compounds were tested three times in each tumour cell lines. The IC50 values were the averages of three determinations and calculated by concentration-response curve fitting method.
(§2) All the synthesised compounds […] were evaluated for their antiproliferation activities against A549 (human lung cancer), MCF-7 (human breast cancer) and MKN-45 (human gastric cancer) cell lines by MTT assay, using cabozantinib as the positive control.

Data set [2] relates to MKN-45 (human gastric cancer) cell line. The data set can be described thus: Cell proliferation assay (MTT), MKN-45. Type of data set: cell-based. Particulars: 48 h exposure, n = 3 (mean ± SD), read-out: Proliferative inhibition IC50, MKN-45. On the procedure:
as §1, §2

In data set [3] the test system is MCF-7 (human breast cancer) cell line. In words: Cell proliferation assay (MTT), MCF-7. The format is cell-based. Particulars: MCF7, 48 h exposure, n = 3 (mean ± SD), read-out: Proliferative inhibition IC50, MCF-7. How it is done:
as §1, §2

A further data set addresses T1, c-Met kinase (Homo sapiens, UniProt P08581).
T1 construct: purchased Carna
The data set can be described thus: c-Met inhibition assay (Caliper motility shift assay). The format is biochemical. Particulars: for c-Met inhibition % Inhibition (10 μΜ): 10 μΜ compound; for c-Met inhibition % Inhibition (10 μΜ) / IC50: n = 3 (mean ± SD); for fold lower c-Met activity than compound 12c: versus 12c. On the procedure: A Caliper motility shift assay was applied to test the potency of synthesised compounds against c-Met kinase. Briefly, the compounds were dissolved in DMSO (Sigma) at 0.5 mM concentration, and then were diluted 50× to the final desired highest inhibitor concentration (10 μM) in reaction by DMSO. For all compounds, 100 μL of the diluted compound solution in tubes was transferred to a well on a 96-well plate (Corning) and was serially diluted 10× by transferring 10 μL dilution to 90 μL DMSO in the next well. 100 μL DMSO was added to two empty wells in the same 96-well plate for no compound control and no enzyme control. The plate was marked as source plate. 10 μL of compound solution from source plate was transferred to a new 96-well plate as the intermediate plate. […] After that, 5 μL solution from each well of the intermediate plate was transferred to a 384-well plate (Corning) as the assay plate in duplicates.c-Met kinase (Carna) was added in 1× kinase base buffer to prepare 2.5× enzyme solution, and FAM-labled peptide (GL Biochem) and ATP (Sigma) were added in 1× kinase base buffer to prepare 2.5× peptide solution. 10 μL of 2.5× enzyme solution was added to each well of the 384-well assay plate that already contained 5 μL of compound in 10% DMSO, and then incubated at room temperature for 10 min. […] The data were collected on Caliper and the conversion data were copied from Caliper program.
IC50 values were calculated from three independent experiments by fitting the data in XLfit with the following equation: Y = Bottom + (Top-Bottom)/(1 + (IC50/X)^HillSlope).

The record followed here is PMC6237173, “Synthesis of novel 6,7-dimethoxy-4-anilinoquinolines as potent c-Met inhibitors” (Journal of Enzyme Inhibition and Medicinal Chemistry, 2018).

T1 sequence (P08581 25-1390): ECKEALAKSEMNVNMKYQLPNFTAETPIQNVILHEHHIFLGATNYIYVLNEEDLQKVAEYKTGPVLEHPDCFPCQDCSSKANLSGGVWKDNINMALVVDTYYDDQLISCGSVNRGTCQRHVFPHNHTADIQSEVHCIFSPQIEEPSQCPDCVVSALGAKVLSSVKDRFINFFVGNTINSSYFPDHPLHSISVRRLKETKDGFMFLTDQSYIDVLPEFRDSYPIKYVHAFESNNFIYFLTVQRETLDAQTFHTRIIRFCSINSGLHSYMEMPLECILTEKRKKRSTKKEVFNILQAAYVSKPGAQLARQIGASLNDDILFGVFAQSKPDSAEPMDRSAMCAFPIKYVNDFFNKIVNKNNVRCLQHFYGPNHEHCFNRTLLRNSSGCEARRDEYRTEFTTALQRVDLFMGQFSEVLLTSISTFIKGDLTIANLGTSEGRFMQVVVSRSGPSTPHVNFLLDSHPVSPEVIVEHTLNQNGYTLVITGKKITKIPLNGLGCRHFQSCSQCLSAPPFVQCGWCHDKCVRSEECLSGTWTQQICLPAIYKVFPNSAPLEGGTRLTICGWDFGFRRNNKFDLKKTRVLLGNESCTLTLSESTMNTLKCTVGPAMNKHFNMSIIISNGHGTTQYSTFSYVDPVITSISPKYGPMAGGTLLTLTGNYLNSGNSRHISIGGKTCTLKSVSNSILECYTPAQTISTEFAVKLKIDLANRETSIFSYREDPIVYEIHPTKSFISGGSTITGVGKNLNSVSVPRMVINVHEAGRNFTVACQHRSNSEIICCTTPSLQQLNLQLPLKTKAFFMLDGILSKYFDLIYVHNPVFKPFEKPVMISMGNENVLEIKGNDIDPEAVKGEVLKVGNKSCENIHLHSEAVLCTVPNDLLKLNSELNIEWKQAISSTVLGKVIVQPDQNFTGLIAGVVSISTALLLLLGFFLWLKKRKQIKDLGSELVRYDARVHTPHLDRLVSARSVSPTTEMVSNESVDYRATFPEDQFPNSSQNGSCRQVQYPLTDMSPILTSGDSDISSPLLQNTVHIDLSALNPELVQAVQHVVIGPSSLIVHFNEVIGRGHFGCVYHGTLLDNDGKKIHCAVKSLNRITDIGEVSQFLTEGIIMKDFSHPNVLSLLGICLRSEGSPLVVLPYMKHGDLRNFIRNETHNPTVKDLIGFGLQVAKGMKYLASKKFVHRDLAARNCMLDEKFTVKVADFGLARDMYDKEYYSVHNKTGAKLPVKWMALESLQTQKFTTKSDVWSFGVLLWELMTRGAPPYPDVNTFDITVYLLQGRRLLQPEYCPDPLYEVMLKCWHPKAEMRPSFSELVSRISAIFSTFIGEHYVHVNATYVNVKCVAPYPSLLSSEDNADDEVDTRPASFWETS

What is called melting point is the temperature of the solid-liquid transition. The term IC50 denotes the concentration that inhibits the measured activity by half. Consider `COc1cc2nccc(Nc3ccc4nc(-c5ccccc5F)[nH]c4c3)c2cc1OC` [Compound 12a, N-(2–(2-fluorophenyl)-1H-benzo[d]imidazol-6-yl)-6,7-dimethoxyquinolin-4-amine], for which the melting point was in the range of 247 to 249 °C. The IC50 in data set [1] was greater than 100 µM. The 50% inhibitory concentration (IC50) in data set [2] was greater than 100 µM. The IC50 in data set [3] was greater than 100 µM. The “c-Met inhibition % Inhibition (10 μΜ)” value at c-Met kinase worked out at 16.9 ± 3.5%. The “c-Met inhibitory activity in words” value at c-Met kinase (SAR statement, ortho-substituted compounds) is on record as “diminished activity”.

The compound `COc1cc2nccc(Nc3ccc4nc(-c5cccc(F)c5)[nH]c4c3)c2cc1OC` [Compound 12b, N-(2–(3-fluorophenyl)-1H-benzo[d]imidazol-6-yl)-6,7-dimethoxyquinolin-4-amine] displayed a melting point of 286 to 288 °C. The IC50 in data set [1] was 45 ± 3.3 µM. For the same compound, the IC50 in data set [2] came out at 57.5 ± 1.9 µM. The IC50 in data set [3] came to 48.6 ± 5.2 µM. On c-Met kinase, the “c-Met inhibition % Inhibition (10 μΜ)” value is 62.8 ± 1.2% and the half-maximal inhibitory concentration (IC50) was found to be 1.2 ± 0.4 µM.

On to `COc1cc2nccc(Nc3ccc4nc(-c5ccc(F)cc5)[nH]c4c3)c2cc1OC` [Compound 12c, N-(2–(4-fluorophenyl)-1H-benzo[d]imidazol-6-yl)-6,7-dimethoxyquinolin-4-amine], for which the melting point is 312 to 315 °C. The IC50 in data set [1] was found to be 15.6 ± 2.5 µM. The concentration for half-maximal inhibition (IC50) in data set [2] was determined as 21 ± 1.8 µM. In data set [3], the IC50 was determined as 11.3 ± 1.6 µM. Moreover, at c-Met kinase, the “c-Met inhibition % Inhibition (10 μΜ)” value worked out at 89.2 ± 0.3% and the IC50 came out at 0.11 ± 0.02 µM. Further, the “fold more potent c-Met activity than compound 12b” value on c-Met kinase (ratio of c-Met IC50 values, versus 12b) came to 11 fold.

`COc1cc2nccc(Nc3ccc4nc(-c5ccccc5Cl)[nH]c4c3)c2cc1OC` [Compound 12d, N-(2–(2-chlorophenyl)-1H-benzo[d]imidazol-6-yl)-6,7-dimethoxyquinolin-4-amine] came in with a melting point of 287 to 290 °C. In addition, the 50% inhibitory concentration (IC50) in data set [1] is greater than 100 µM. The IC50 in data set [2] was greater than 100 µM. The IC50 in data set [3] is greater than 100 µM. Besides, the “c-Met inhibition % Inhibition (10 μΜ)” value on c-Met kinase was 17.4 ± 3.7%.

`COc1cc2nccc(Nc3ccc4nc(-c5cccc(Cl)c5)[nH]c4c3)c2cc1OC` [Compound 12e, N-(2–(3-chlorophenyl)-1H-benzo[d]imidazol-6-yl)-6,7-dimethoxyquinolin-4-amine]: the melting point was in the range of 250 to 252 °C. Further, the IC50 in data set [1] is 53.8 ± 5 µM. The IC50 in data set [2] worked out at 85.7 ± 3.7 µM. In addition, the IC50 in data set [3] came to 63.5 ± 4.8 µM. For the same compound, at c-Met kinase, the “c-Met inhibition % Inhibition (10 μΜ)” value is on record as 54.5 ± 6.9% and the half-inhibitory concentration (IC50) was 4.8 ± 0.5 µM.

With `COc1cc2nccc(Nc3ccc4nc(-c5ccc(Cl)cc5)[nH]c4c3)c2cc1OC` [Compound 12f, N-(2–(4-chlorophenyl)-1H-benzo[d]imidazol-6-yl)-6,7-dimethoxyquinolin-4-amine], the melting point was in the range of 330 to 332 °C. In addition, the IC50 in data set [1] is 32.4 ± 3.6 µM. Also, the IC50 in data set [2] turned out to be 39.5 ± 2.5 µM. Further, the IC50 in data set [3] was found to be 29.2 ± 1.4 µM. In addition, at c-Met kinase, the “c-Met inhibition % Inhibition (10 μΜ)” value is 63.8 ± 0.7% and the IC50 stood at 0.93 ± 0.1 µM. For the same compound, at c-Met kinase (ratio of c-Met IC50 values), the “fold lower c-Met activity than compound 12c” value was “about 9 fold”.

`COc1cc2nccc(Nc3ccc4nc(-c5ccc(Br)cc5)[nH]c4c3)c2cc1OC` [Compound 12g, N-(2–(4-bromophenyl)-1H-benzo[d]imidazol-6-yl)-6,7-dimethoxyquinolin-4-amine] gave a melting point of 280 to 282 °C. In addition, the IC50 in data set [1] came out at 38.5 ± 2.4 µM. Further, the IC50 in data set [2] came out at 55 ± 3.4 µM. Moreover, the 50% inhibitory concentration (IC50) in data set [3] is 46.3 ± 3.7 µM. In addition, at c-Met kinase, the “c-Met inhibition % Inhibition (10 μΜ)” value turned out to be 54.2 ± 0.1% and the IC50 worked out at 5.5 ± 0.9 µM. The “fold lower c-Met activity than compound 12c” value at c-Met kinase (ratio of c-Met IC50 values) is given as “about 50 fold”.

For `COc1cc2nccc(Oc3ccc(NC(=O)C4(C(=O)Nc5ccc(F)cc5)CC4)cc3)c2cc1OC` [cabozantinib, reference compound], the IC50 in data set [1] worked out at 4.5 ± 0.8 µM; in data set [2] it was 11.8 ± 1.4 µM; in data set [3], 7.2 ± 0.5 µM.
